ChEMBL document CHEMBL1201862, “PubChem BioAssay data set” (2004)
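All cell lines were grown in 96-well plates and treated with compound for 48 hours. GI50: concentration for 50% inhibition of growth.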 Activity calls are given as the source filed them. Cut-off read from the data, not from the text of the source: active = GI50 up to about 1.1 µM and inactive = higher.

Tests used:
Assay in all cases: DTP human tumour cell line panel, 48 h
SF-268 = tested on: SF-268
CCRF-CEM = tested on: CCRF-CEM
TK-10 = tested on: TK-10
ACHN = tested on: ACHN
HCT-116 = tested on: HCT-116
SK-MEL-5 = tested on: SK-MEL-5
IGROV-1 = tested on: IGROV-1
KM-20L2 = tested on: KM-20L2
SNB-75 = tested on: SNB-75
SF-295 = tested on: SF-295
HOP-92 = tested on: HOP-92
RPMI-8226 = tested on: RPMI-8226
M14 = tested on: M14
CAKI-1 = tested on: CAKI-1
A549 = tested on: A549
UO-31 = tested on: UO-31
786-0 = tested on: 786-0
NCI-H522 = tested on: NCI-H522
T47D = tested on: T47D
DU-145 = tested on: DU-145

Structure (SMILES)	GI50 (SF-268)	GI50 (CCRF-CEM)	GI50 (TK-10)	GI50 (ACHN)	GI50 (HCT-116)	GI50 (SK-MEL-5)	GI50 (IGROV-1)	GI50 (KM-20L2)	GI50 (SNB-75)	GI50 (SF-295)	GI50 (HOP-92)	GI50 (RPMI-8226)	GI50 (M14)	GI50 (CAKI-1)	GI50 (A549)	GI50 (UO-31)	GI50 (786-0)	GI50 (NCI-H522)	GI50 (T47D)	GI50 (DU-145)
O=C1Nc2cc(Cl)ccc2N=CC1NC(=O)C(c1ccccc1)c1ccccc1Cl (configuration not stated)	> 100 µM (inactive)	> 100 µM (inactive)	> 100 µM (inactive)	> 100 µM (inactive)	> 100 µM (inactive)	> 100 µM (inactive)	> 100 µM (inactive)	> 100 µM (inactive)	> 100 µM (inactive)	> 100 µM (inactive)	> 100 µM (inactive)	> 100 µM (inactive)	> 100 µM (inactive)	> 100 µM (inactive)	> 100 µM (inactive)	> 100 µM (inactive)	> 100 µM (inactive)	> 100 µM (inactive)	–	–
O=C(CO[N+](=O)[O-])OCC(=O)c1ccccc1	> 100 µM (inactive)	> 100 µM (inactive)	> 100 µM (inactive)	> 100 µM (inactive)	> 100 µM (inactive)	–	> 100 µM (inactive)	> 100 µM (inactive)	> 100 µM (inactive)	> 100 µM (inactive)	> 100 µM (inactive)	> 100 µM (inactive)	> 100 µM (inactive)	> 100 µM (inactive)	> 100 µM (inactive)	> 100 µM (inactive)	> 100 µM (inactive)	> 100 µM (inactive)	–	–
Cc1cc(NC(=O)NC(=O)c2ccccc2NC(=O)CN)ccc1Oc1ncc(Br)cn1	1.55 µM (inactive)	0.403 µM (active)	9.62 µM (inactive)	9.44 µM (inactive)	0.33 µM (active)	–	0.847 µM (active)	0.676 µM (active)	0.139 µM (active)	0.0661 µM (active)	3.6 µM (inactive)	1.57 µM (inactive)	0.592 µM (active)	0.0627 µM (active)	0.879 µM (active)	0.246 µM (active)	0.502 µM (active)	–	12.3 µM (inactive)	0.402 µM (active)
CCOc1ccc(NC(=O)/C(Cc2nc3ccccc3nc2O)=N\O)cc1	> 100 µM (inactive)	> 100 µM (inactive)	> 100 µM (inactive)	> 100 µM (inactive)	> 100 µM (inactive)	> 100 µM (inactive)	> 100 µM (inactive)	> 100 µM (inactive)	70.1 µM (inactive)	–	54.2 µM (inactive)	> 100 µM (inactive)	> 100 µM (inactive)	> 100 µM (inactive)	> 100 µM (inactive)	> 100 µM (inactive)	> 100 µM (inactive)	> 100 µM (inactive)	–	–
COc1cccc(-c2cc(C(=O)Nc3ccc(Cl)cc3)nc(N)n2)c1	65.2 µM (inactive)	> 100 µM (inactive)	> 100 µM (inactive)	> 100 µM (inactive)	42.9 µM (inactive)	55.6 µM (inactive)	50.7 µM (inactive)	61.4 µM (inactive)	21.4 µM (inactive)	87.9 µM (inactive)	> 100 µM (inactive)	53.1 µM (inactive)	37.3 µM (inactive)	> 100 µM (inactive)	64.7 µM (inactive)	> 100 µM (inactive)	55 µM (inactive)	32.4 µM (inactive)	–	–
COC(=O)c1c/c(=N\NC(=O)CC(=O)Nc2ccc(C)cc2)c2ccccc2o1	> 100 µM (inactive)	> 100 µM (inactive)	> 100 µM (inactive)	> 100 µM (inactive)	> 100 µM (inactive)	> 100 µM (inactive)	> 100 µM (inactive)	> 100 µM (inactive)	> 100 µM (inactive)	> 100 µM (inactive)	> 100 µM (inactive)	> 100 µM (inactive)	> 100 µM (inactive)	> 100 µM (inactive)	> 100 µM (inactive)	> 100 µM (inactive)	> 100 µM (inactive)	> 100 µM (inactive)	–	–
CCNC(=O)C#CC(=O)NCC	53.7 µM (inactive)	> 46.1 µM (inactive)	> 100 µM (inactive)	> 100 µM (inactive)	21.9 µM (inactive)	> 100 µM (inactive)	> 100 µM (inactive)	> 100 µM (inactive)	> 69 µM (inactive)	> 100 µM (inactive)	> 100 µM (inactive)	> 42.4 µM (inactive)	> 100 µM (inactive)	> 100 µM (inactive)	> 60.5 µM (inactive)	> 100 µM (inactive)	> 100 µM (inactive)	> 31.1 µM (inactive)	–	–
C=Cc1cc(OC)c2c(c1)c(=O)oc1c2cc(OC)c2c(O)ccc(C3OC(C)C(O)C(C)(O)C3O)c21 (configuration not stated)	0.0237 µM (active)	0.0225 µM (active)	0.00249 µM (active)	0.000409 µM (active)	0.0235 µM (active)	–	0.0403 µM (active)	0.041 µM (active)	0.0302 µM (active)	0.0313 µM (active)	0.041 µM (active)	0.0294 µM (active)	0.000382 µM (active)	0.0462 µM (active)	0.0328 µM (active)	0.0454 µM (active)	0.000348 µM (active)	–	0.00147 µM (active)	0.000296 µM (active)
C[C@]12CCC(=O)C=C1CC[C@@H]1[C@@H]2CC[C@]2(C)C(=O)NC(=O)C[C@@H]12	> 100 µM (inactive)	> 100 µM (inactive)	> 100 µM (inactive)	> 100 µM (inactive)	> 100 µM (inactive)	> 100 µM (inactive)	> 100 µM (inactive)	> 100 µM (inactive)	> 100 µM (inactive)	> 100 µM (inactive)	> 100 µM (inactive)	> 100 µM (inactive)	> 100 µM (inactive)	> 100 µM (inactive)	> 100 µM (inactive)	> 100 µM (inactive)	> 100 µM (inactive)	> 100 µM (inactive)	–	–
O=c1n(CC2CO2)c(=O)n(CC2CO2)c(=O)n1CC1CO1 (configuration not stated) [TEROXIRONE]	14.3 µM (inactive)	3.6 µM (inactive)	36.6 µM (inactive)	1.36 µM (inactive)	22.1 µM (inactive)	–	39.2 µM (inactive)	68.5 µM (inactive)	25.1 µM (inactive)	10 µM (inactive)	39.3 µM (inactive)	39.4 µM (inactive)	9.27 µM (inactive)	8.04 µM (inactive)	13.7 µM (inactive)	25.7 µM (inactive)	6.22 µM (inactive)	13.6 µM (inactive)	17.3 µM (inactive)	6.97 µM (inactive)
CC(C)(C)c1cc(Oc2ccc(C#N)c(C#N)c2)cc(C(C)(C)C)c1	> 100 µM (inactive)	38.3 µM (inactive)	> 100 µM (inactive)	> 100 µM (inactive)	68.1 µM (inactive)	> 100 µM (inactive)	> 100 µM (inactive)	> 100 µM (inactive)	> 100 µM (inactive)	> 100 µM (inactive)	> 100 µM (inactive)	> 100 µM (inactive)	> 100 µM (inactive)	> 100 µM (inactive)	> 100 µM (inactive)	> 100 µM (inactive)	90.2 µM (inactive)	36.1 µM (inactive)	–	–
CN1CCN(CCNc2ccc(CO)c3sc4ccccc4c(=O)c23)CC1	11.6 µM (inactive)	4.34 µM (inactive)	18.3 µM (inactive)	13.8 µM (inactive)	5.69 µM (inactive)	12.7 µM (inactive)	11.1 µM (inactive)	4.21 µM (inactive)	9.48 µM (inactive)	5.93 µM (inactive)	13.4 µM (inactive)	10.9 µM (inactive)	14.1 µM (inactive)	11.9 µM (inactive)	10.5 µM (inactive)	14.7 µM (inactive)	5.87 µM (inactive)	3.38 µM (inactive)	–	–
Clc1ccc(-n2nnc(C3=NCCCN3)c2-c2ccccc2)cc1	> 100 µM (inactive)	> 100 µM (inactive)	> 100 µM (inactive)	> 100 µM (inactive)	> 100 µM (inactive)	75.2 µM (inactive)	> 100 µM (inactive)	> 100 µM (inactive)	> 100 µM (inactive)	> 100 µM (inactive)	> 100 µM (inactive)	> 100 µM (inactive)	> 100 µM (inactive)	> 100 µM (inactive)	> 100 µM (inactive)	88.7 µM (inactive)	> 100 µM (inactive)	> 100 µM (inactive)	–	–
Cc1cc(=O)oc2cc(OCc3nc4ccccc4c(=O)n3-c3ccccc3)ccc12	> 100 µM (inactive)	> 100 µM (inactive)	> 100 µM (inactive)	> 100 µM (inactive)	> 100 µM (inactive)	> 100 µM (inactive)	> 100 µM (inactive)	> 100 µM (inactive)	20.7 µM (inactive)	58.2 µM (inactive)	28.1 µM (inactive)	> 100 µM (inactive)	> 100 µM (inactive)	> 100 µM (inactive)	> 100 µM (inactive)	–	38.4 µM (inactive)	> 100 µM (inactive)	–	–
CCOC(=O)C(=Cc1ccc(C(=O)OC)cc1)C(=O)OCC	2.4 µM (inactive)	1.58 µM (inactive)	2.88 µM (inactive)	1.69 µM (inactive)	3.33 µM (inactive)	2.05 µM (inactive)	3.01 µM (inactive)	0.845 µM (active)	2.07 µM (inactive)	5.26 µM (inactive)	1.67 µM (inactive)	1.37 µM (inactive)	1.69 µM (inactive)	1.67 µM (inactive)	3.37 µM (inactive)	–	1.62 µM (inactive)	1.33 µM (inactive)	–	–
